Values after ≈ are worked out from the molar mass of the structure shown. Values joined by “and” are separate entries in the source; they are usually repeats but may differ in a detail not shown here. Identical values can stand only once. Counter-ions that a name gives are not always drawn. Like-named read-outs stand apart in the source and are kept apart here.

One series deals with P. falciparum. Also noted: method as in literature (number not shown). To be noted: strain not stated, ref literature (number not shown), cited from earlier work.
The test system of the next series is P. falciparum D6 strain. The arrangement: method as in literature (numbers not shown). The conditions noted are these: ref literature (numbers not shown); cited from earlier work.
The next series relates to P. falciparum W2 strain. Also noted: method as in literature (numbers not shown). To be noted: ref literature (numbers not shown); cited from earlier work.
Series [1] deals with P. falciparum FCR3 strain. The arrangement: method as in literature (numbers not shown). To be noted: ref literature (numbers not shown); cited from earlier work.
Series [2] deals with mouse mammary carcinoma (FM3A) cell cultures. Also noted: method as in literature (number not shown). The conditions noted are these: ref literature (number not shown); cited from earlier work.
Series [3] relates to K1 strain of Plasmodium falciparum. In words: In vitro susceptibility assay (microtest), P. falciparum K1 growth inhibition. The series is classed as cell-based. The conditions noted are these: Plasmodium falciparum, K1, 48 h. As to the method: In vitro culture of the K1 strain of P. falciparum (MRA-159, MR4, ATCC, Manassas, Virginia, USA) proceeded following an established method with modifications. Briefly, this method involved the growth of parasites in human type A+ red blood cells and RPMI 1640 medium supplemented with 10% type A+ human plasma at 37 °C under an atmosphere of 5% O2, 5% CO2, and 90% N2.
As initial condition for the susceptibility assay, cultures were synchronized by treatment with 5% D-sorbitol, which provided young trophozoites (ring stages). Performance of the microtest followed a previously described procedure with modifications. Compounds were dissolved in DMSO with the aid of an ultrasound bath to provided stock solutions. […] These diluted samples were evaluated in duplicate in a 96-well test plate. A suspension of parasitized red blood cells (pRBCs) at 2% hematocrit and 1% parasitemia was added to each well. Microplate incubation proceeded for 48 h at 37 °C under the same atmosphere used for parasite culture in two independent experiments conducted on different days. Control wells contained chloroquine (0.003–2.5 μg/mL) and quinine (0.003–2.5 μg/mL). Six (6) control (blank) wells were prepared with pRBCs suspension. Six cosolvent control wells were prepared with 1% DMSO and pRBCs suspension. An average of these 12 controls defined drug-free (untreated) growth. After the incubation period, thin blood smears of the contents of each well were prepared on microscope slides. Optical microscopy was used to analyze the blood smears and establish the parasitemia of each well. Interpolation of the nonlinear curve using GraphPad Prism permitted the calculation of estimates of the sample concentrations able to inhibit 50% of parasite growth (IC50) compared to drug-free controls.

Series [4] relates to variety of P. falciparum strains. To be noted: FCR3 and INDO strains; ref previous reports (numbers not shown); read-out: IC50; cited from earlier work.
For series [5], the system named is P. falciparum K1 strain vs MRC-5 human fibroblasts. In words: Selectivity index, IC50 (human fibroblasts) ÷ IC50 (P. falciparum). The series is classed as cell-based, Plasmodium falciparum. An excerpt: Calculation of the selectivity index (SI) using the following formula afforded the relative toxicity of each sample to human fibroblasts and to P. falciparum blood stages: SI = IC50 (human fibroblasts) ÷ IC50 (P. falciparum).

A further series concerns MRC-5 human fibroblasts. Nature of the series: Cytotoxicity/cell viability assay (Alamar blue). The series is classed as cell-based. The conditions noted are these: read-out: fibroblasts IC50. As to the method: Medical Research Council cell strain 5 (MRC-5) human fetal fibroblasts were cultivated in Dulbecco′s modified Eagle’s medium (DMEM) supplemented with 10% bovine fetal serum and 1% antibiotic at 37 °C under an atmosphere of 5% CO2. Cell viability assessment relied on the Alamar blue method. […] Doxorubicin at concentrations of 0.312, 0.625, 1.25, 2.50, 5.00, 10.0, and 20.0 μM was used as a positive control for cell death. The negative control wells received DMSO (sample diluent) at 0.1%. In preparation for the assay, this method involved plating 0.5 × 10^4 cells/well on 96 well test plates and incubating for 24 h under the same conditions used for cell culture. This initial 24 h period was necessary for cell adhesion. The assay consisted of triplicate addition of diluted samples and controls to wells followed by 48 h of incubation. For quantification of viable cells, 10 μL of 0.4% Alamar blue (Sigma-Aldrich)–which works out to an in-well concentration of 0.02%–were added to each well 3 h before the end of the treatment. Alamar blue was allowed to react for 3 h followed by quantification of the optical density (OD) of each well at an excitation wavelength of 465 nm and emission wavelength of 540 nm using an ELISA plate reader (DTX-800, Beckman Coulter). Comparison of individual sample viability OD to that of controls (blanks) afforded the cell viability. Interpolation of the nonlinear curve using GraphPad Prism software permitted the calculation of estimates of the sample IC50 values compared to drug-free controls.
(Resazurin is reduced to fluorescent resorufin, in cell work by metabolically active cells.)

In the next series the test system is P. falciparum K1 strain. The arrangement: method as in earlier work. The conditions noted are these: ref previous reports incl. authors' earlier work (numbers not shown); cited from earlier work.
Where [6] appears, read: read-out: P. falciparum IC50 (CI95), K1 strain, 48 h, CI95 in brackets.
The mark [7] stands for this setting: MRC5, MRC-5, tested at 50 μg/mL for 48 h.
Setting [8] is: K1 strain, 48 h, CI95 in brackets, read-out: P. falciparum IC50 (CI95).

For `CC(=O)O[C@@H]1C[C@H]2C(C)(C)C(=O)C=C[C@]2(C)[C@H]2CC[C@@]3(C)[C@H](c4ccoc4)OC(=O)[C@H]4O[C@]43[C@@]21C` (single isomer, unassigned) [(−)-gedunin, reference compound], the IC50 in the series with P. falciparum (48 h, read-out: IC50 after 48 h) was 1 µM; in the series on P. falciparum (96 h, read-out: IC50 after 96 h), 0.3 µM; with P. falciparum D6 strain, 0.081 to 0.63 µM; with P. falciparum W2 strain, 0.041 to 0.65 µM.

Consider `CC(=O)O[C@H]1[C@@H](O)[C@]2(C)[C@H](CC[C@@]3(C)[C@H](c4ccoc4)OC(=O)[C@H]4O[C@@]423)[C@@]2(C)C=CC(=O)C(C)(C)[C@H]12` [6α-acetoxy-7-deacetylgedunin, reference compound], for which, in series [1], the half-inhibitory concentration (IC50) is 4 µM.

Turning to `CC(=O)O[C@H]1[C@@H](OC(C)=O)[C@]2(C)[C@H](CC[C@@]3(C)[C@H](c4ccoc4)OC(=O)[C@H]4O[C@@]423)[C@@]2(C)C=CC(=O)C(C)(C)[C@H]12` [6α-acetoxygedunin], in series [2], the “toxicity to FM3A cells” value is “toxic”. The IC50 in series [1] was 2.8 µM.

`CCN(CC)CCCC(C)Nc1ccnc2cc(Cl)ccc12` (stereo not drawn) [chloroquine diphosphate, reference compound]: the IC50 in series [3] (read-out: P. falciparum IC50 (CI95)) is 0.18 µg/mL and 350 nM.

In the case of `CC1(C)C(=O)C=C[C@]2(C)[C@H]3CC[C@@]4(C)[C@H](c5ccoc5)OC(=O)[C@H]5O[C@]54[C@]3(C)C(=O)C[C@@H]12` [compound 1, 7-Deacetyl-7-oxogedunin], in series [2], the “toxicity to FM3A cells” value is “toxic”. The IC50 in the series on P. falciparum D6 strain is > 20.7 µM; with P. falciparum W2 strain, > 20.7 µM; in [4], 2.5 to 7.5 µM.

Consider `CC1(C)C(=O)C=C[C@]2(C)[C@H]3CC[C@@]4(C)[C@H](c5ccoc5)OC(=O)[C@H]5O[C@]54[C@]3(C)[C@@H](O)C[C@@H]12` [compound 3, 7-deacetyl-7-epi-gedunin], for which the “selectivity index (SI)” value in [5] was >15. The IC50 with MRC-5 human fibroblasts (MRC5, 48 h) was > 110 µM; in [3] (setting [6]), 3.4 µg/mL and 7.8 µM.

Turning to `CC(=O)O[C@H]1C[C@H]2C(C)(C)C(=O)C=C[C@]2(C)[C@H]2CC[C@@]3(C)[C@H](c4ccoc4)OC(=O)[C@H]4O[C@]43[C@]12C` [compound 5, 7-epi-gedunin], the “selectivity index (SI)” value in series [5] is given as >45. Moreover, the IC50 with MRC-5 human fibroblasts (setting [7]) is > 100 µM; in series [3] (setting [8]), 1.1 µg/mL and 2.3 µM.

For the molecule `CCCC(=O)O[C@@H]1C[C@H]2C(C)(C)C(=O)C=C[C@]2(C)[C@H]2CC[C@@]3(C)[C@H](c4ccoc4)OC(=O)[C@H]4O[C@]43[C@@]21C` [compound 6, 7-deacetyl-7-butanoylgedunin], the “selectivity index (SI)” value in [5] was >21. Further, the IC50 in the series on MRC-5 human fibroblasts (MRC5, 48 h) was > 98 µM; in series [3] (setting [6]), 2.4 µg/mL and 4.7 µM.

With `CCCC(=O)O[C@H]1C[C@H]2C(C)(C)C(=O)C=C[C@]2(C)[C@H]2CC[C@@]3(C)[C@H](c4ccoc4)OC(=O)[C@H]4O[C@]43[C@]12C` [compound 7, 7-deacetyl-7-butanoyl-7-epi-gedunin], the “selectivity index (SI)” value in series [5] is reported as >21. The IC50 with MRC-5 human fibroblasts (MRC5, 48 h) is > 98 µM; in [3] (setting [6]), 2.4 µg/mL and 4.7 µM.

Turning to `CCCCC(=O)O[C@@H]1C[C@H]2C(C)(C)C(=O)C=C[C@]2(C)[C@H]2CC[C@@]3(C)[C@H](c4ccoc4)OC(=O)[C@H]4O[C@]43[C@@]21C` [compound 8, 7-deacetyl-7-pentanoylgedunin], the “selectivity index (SI)” value in [5] is reported as >12. Besides, the 50% inhibitory concentration (IC50) is > 95 µM in the series with MRC-5 human fibroblasts (setting [7]); 4.2 µg/mL and 8 µM in [3] (setting [8]).

`CCCCC(=O)O[C@H]1C[C@H]2C(C)(C)C(=O)C=C[C@]2(C)[C@H]2CC[C@@]3(C)[C@H](c4ccoc4)OC(=O)[C@H]4O[C@]43[C@]12C` [compound 9, 7-deacetyl-7-pentanoyl-7-epi-gedunin]: the “selectivity index (SI)” value in series [5] was >14. In addition, the IC50 in the series with MRC-5 human fibroblasts (setting [7]) was > 95 µM; in series [3] (setting [8]), 3.7 µg/mL and 7 µM.

As for `CC1(C)C(=O)C=C[C@]2(C)[C@H]3CC[C@@]4(C)[C@H](c5ccoc5)OC(=O)[C@H]5O[C@]54[C@]3(C)[C@H](O)[C@H](O)[C@@H]12` [compound 10, 7-deacetyl-6α-hydroxygedunin], the “selectivity index (SI)” value in [5] was >16. Also, the IC50 in the series with MRC-5 human fibroblasts (setting [7]) is > 100 µM; in the series on P. falciparum K1 strain it was 5 µM; in series [3] (setting [8]), 2.8 µg/mL and 6.1 µM.

Consider `CC(=O)O[C@@H]1[C@H](O)[C@H]2C(C)(C)C(=O)C=C[C@]2(C)[C@H]2CC[C@@]3(C)[C@H](c4ccoc4)OC(=O)[C@H]4O[C@]43[C@]12C` [compound 11, 6α-hydroxygedunin], for which the 50% inhibitory concentration (IC50) in [1] is 90 µM; with MRC-5 human fibroblasts (setting [7]) it was > 110 µM; in [3] (setting [8]), 2.2 µg/mL and 4.4 µM. In addition, the “selectivity index (SI)” value in [5] was >26.

Consider `CCCC(=O)O[C@H]1[C@@H](O)[C@]2(C)[C@H](CC[C@@]3(C)[C@H](c4ccoc4)OC(=O)[C@H]4O[C@@]423)[C@@]2(C)C=CC(=O)C(C)(C)[C@H]12` [compound 13, 7-deacetyl-6α-butanoyloxygedunin], for which, in series [5], the “selectivity index (SI)” value is listed as >15. The IC50 was > 100 µM in the series with MRC-5 human fibroblasts (setting [7]); 3.7 µg/mL and 7.1 µM in series [3] (setting [8]).

Consider `CC1(C)C(=O)C=C[C@]2(C)[C@H]3CC[C@@]4(C)[C@H](c5ccoc5)OC(=O)[C@H]5O[C@]54[C@]3(C)[C@H](O)[C@H](OC(=O)c3ccccc3)[C@@H]12` [compound 14, 7-deacetyl-6α-benzoxygedunin], for which, in series [5], the “selectivity index (SI)” value is on record as >11. The IC50 is > 110 µM with MRC-5 human fibroblasts (setting [7]); 5.1 µg/mL and 10 µM in series [3] (setting [8]).

For `CCCCCCC(=O)O[C@H]1[C@@H](O)[C@]2(C)[C@H](CC[C@@]3(C)[C@H](c4ccoc4)OC(=O)[C@H]4O[C@@]423)[C@@]2(C)C=CC(=O)C(C)(C)[C@H]12` [compound 15, 7-deacetyl-6α-heptanoyloxygedunin], the “selectivity index (SI)” value in series [5] was >9.4. Also, the IC50 was > 88 µM in the series with MRC-5 human fibroblasts (setting [7]); 5.4 µg/mL and 9.4 µM in series [3] (setting [8]).

For the molecule `CC1(C)[C@H](O)CC[C@]2(C)[C@H]3CC[C@@]4(C)[C@H](c5ccoc5)OC(=O)[C@H]5O[C@]54[C@]3(C)[C@@H](O)C[C@@H]12` [compound 16, 7-deacetyl-3-deoxo-1,2-dihydro-3α-hydroxy-7-epi-gedunin], the “selectivity index (SI)” value in series [5] is given as >3.2. Further, the IC50 in the series on MRC-5 human fibroblasts (setting [7]) was > 110 µM; in [3] (setting [8]) it was 16 µg/mL (≈ 36 µM).

With `C=C[C@H]1C[N@@]2CC[C@H]1C[C@H]2[C@H](O)c1ccnc2ccc(OC)cc12` [quinine hydrochloride, reference compound], in series [3] (setting [8]), the IC50 was 0.14 µg/mL and 350 nM.

As usually defined, the IC50 is the concentration needed to halve the response being measured.

The values are drawn from PMC12529149, “Chemical and Antiplasmodial Investigations on Carapa-Derived Gedunin Derivatives and Semisynthetic 6- and 7‑Substituted Gedunin Analogues from the Brazilian Amazon” (ACS Omega, 2025).
